Data reported in patent publication US20260374818A1, “CATIONIC PEPTIDES WITH BROAD SPECTRUM ACTIVITY” (priority 2023, published 2026).
Values after ≈ are worked out from the molar mass of the structure shown. Where a SMILES comes first, the peptide text is derived from it. [ ]: non-standard residue; d: D form.

Assays:
[1] = tested on: MRSA biofilms (USA300 LAC); details: SPOT peptides
[2] = tested on: P. aeruginosa PAO1 biofilms; assay: Biofilm inhibition by SPOT-synthesized AB103-D variants (crystal violet), P. aeruginosa; format: cell-based, Pseudomonas aeruginosa; details: P. aeruginosa PAO1, SPOT peptides
MRSA USA300 biofilms = assay: Biofilm inhibition by >95% pure peptides (crystal violet), MRSA; format: cell-based, methicillin resistant Staphylococcus aureus; details: MRSA USA300 biofilms, >95% pure peptides, 10% TSB + 0.1% glucose
P. aeruginosa PAO1 [3] = assay: MIC (broth microdilution) of peptides, P. aeruginosa; format: cell-based, Pseudomonas aeruginosa; details: mode of three biological replicates
Method: (§1) Minimal inhibitory concentration (MIC) against planktonic bacteria: The MIC of the synthetic peptides was determined in Mueller-Hinton broth (MHB) using the broth microdilution method described previously [Wiegand, I., Hilpert, K., & Hancock, R. E. (2008). Agar and broth dilution methods to determine the minimal inhibitory concentration (MIC) of antimicrobial substances. Nature Protocols, 3(2), 163-175]. Briefly, 10 μl of a 10× concentrated peptide solution was placed in the bottom of a well in a 96-well polypropylene round bottom plate (Corning Inc.). A bacterial suspension of ~5×10^5 CFU/ml was prepared from an overnight culture and 90 μl of this was added to each well. […] Bacteria tested included P. aeruginosa PAO1, MRSA USA300 LAC, Staphylococcus haemolyticus, Staphylococcus epidermidis, Klebsiella pneumoniae and Streptococcus salivarius.
(§2) Finally, the AB103-D derivatives that were the least aggregation prone and which produced the lowest toxic effects in vivo were evaluated for their direct antibacterial activity towards several pathogens of clinical relevance using a standard minimum inhibitory concentration (MIC) assay [Wiegand, I., Hilpert, K., & Hancock, R. E. (2008). Agar and broth dilution methods to determine the minimal inhibitory concentration (MIC) of antimicrobial substances. Nature Protocols, 3(2), 163-175]. Specifically, peptides AB110-D, AB111-D, AB114-D and AB115-D were tested against P. aeruginosa PAO1, MRSA USA 300, Staphylococcus haemolyticus, Staphylococcus epidermidis, Klebsiella pneumoniae and Streptococcus salivarius and compared against the antibacterial activity of DJK-5 and AB103-D (Table 7). Overall, the antibacterial potency of all of the AB103-D derivatives was stronger than that seen for DJK-5, particularly in the case of the Gram-negative pathogens P. aeruginosa and K. pneumoniae. […]

MRSA USA 300 = assay: MIC (broth microdilution) of peptides, MRSA; format: cell-based, methicillin resistant Staphylococcus aureus; details: MRSA USA300; mode of three biological replicates
Method: as §1, §2

[4] = tested on: Staphylococcus haemolyticus; assay: MIC (broth microdilution) of peptides, S. haemolyticus; format: cell-based; details: mode of three biological replicates
Method: as §1, §2

[5] = Subdermal murine toxicity model; details: for Average cyst size compared to DJK-5: 16 hours after administration, 4 mg/kg; for Clinical score: 1 hour after subcutaneous administration, comparator DJK-5
Method: FIGS. 14A-14B show murine subdermal toxicity assessment of AB103-D derived peptides. Clinical scores were recorded for each peptide treated mouse one hour after peptide administration (FIG. 14A). […] The presence of a cyst or lesion was recorded 16 hours after peptide administration and the size of the cyst was measured using calipers (FIG. 14B). Data shown are the mean of two independent replicates at a peptide dose of 4 mg/kg.
Subdermal murine toxicity model: A subdermal toxicity mouse model was used to evaluate whether peptides induced localized toxicity of treated cutaneous tissue. Mice were anesthetized with 2.5-3% isoflurane and their fur was removed by shaving followed by application of a chemical depilatory. […] Mice were visually assessed and received clinical scores for a battery of signs or symptoms (activity/behaviour change, appearance/grooming, hydration, pain, cyst formation), for which a score of zero was given to animals that appeared normal. Animals were weighed and clinical scores were totalled. Following an overnight (16 h) incubation, mice were scored and weighed then euthanized with CO2 followed by cervical dislocation. Mice were imaged and cysts (swollen, inflamed tissue) were measured using a caliper. Animal experiments were performed in accordance with the Canadian Council on Animal Care (CCAC) guidelines and were approved by the University of British Columbia Animal Care Committee. Female CD-1 mice were purchased from Charles River Laboratories, Inc. (Wilmington, MA). All mice were 8 weeks of age and weighed 25±5 g at the time of the experiment. Animals were group housed in cohorts of three to four littermates. Standard animal husbandry practices were employed.

[6] = tested on: P. aeruginosa PAO1 biofilms; details: P. aeruginosa PAO1 biofilms; >95% pure peptides; crystal violet; BM2 minimal media
[7] = tested on: Staphylococcus epidermidis; assay: MIC (broth microdilution) of peptides, S. epidermidis; format: cell-based; details: mode of three biological replicates
Method: as §1, §2

Klebsiella pneumoniae = assay: MIC (broth microdilution) of peptides, K. pneumoniae; format: cell-based; details: mode of three biological replicates
Method: as §1, §2

Streptococcus salivarius = assay: MIC (broth microdilution) of peptides, S. salivarius; format: cell-based; details: mode of three biological replicates
Method: as §1, §2

[8] = Peptide aggregation in RPMI + 10% FBS with PBMCs (microscopy); format: physicochemical; details: 50 μg/ml, overnight
Method: Peptide Aggregation: Peptide aggregation was assessed qualitatively by examining samples of peptides mixed with PBMCs following overnight incubation at 37 °C and 5% CO2. All samples were prepared in RPMI media containing 10% FBS the same manner as the cytotoxicity assays described above. Visualization of aggregates was done using a Nikon Eclipse TS100 Inverted Microscope at 10× magnification.
In aggregation studies, peptides were added to PBMCs in RPMI media containing 10% FBS and incubated overnight at 37 °C in 5% CO2.
The peptides were also evaluated for their tendency to aggregate when added to RPMI tissue culture media containing 10% fetal bovine serum in the presence of PBMCs. Peptides were added to PBMCs in RPMI media containing 10% FBS and incubated overnight at 37 °C in 5% CO2. […] Compared to a highly aggregation prone peptide, 1018 [Haney, E. F., et al. (2017). Aggregation and its influence on the immunomodulatory activity of synthetic innate defense regulator peptides.
As with the DJK-5 derivatives above, the AB103-D derivatives were evaluated for their tendency to aggregate when added to RPMI tissue culture media containing 10% fetal bovine serum in the presence of PBMCs. Peptides were added to PBMCs in RPMI media containing 10% FBS and incubated overnight at 37 °C in 5% CO2.

MRSA USA300 = assay: Biofilm inhibition (at least 80%), MRSA; format: cell-based, methicillin resistant Staphylococcus aureus; details: n = 4, 10% TSB + 0.1% glucose, 18-24 hours, crystal violet
[9] = tested on: Acinetobacter baumannii Ab5075; assay: Biofilm inhibition (at least 80%), A. baumannii; format: cell-based; details: n = 4, BM2 minimal media, 18-24 hours, crystal violet
P. aeruginosa PAO1 [10] = assay: Biofilm inhibition (at least 80%), P. aeruginosa; format: cell-based, Pseudomonas aeruginosa; details: n = 4, BM2 minimal media, 18-24 hours, crystal violet
E. coli O157:H7 = assay: Biofilm inhibition (at least 80%), E. coli; format: cell-based, Escherichia coli; details: n = 3, BM2 minimal media, 18-24 hours, crystal violet
[11] = tested on: Enterococcus faecium #2-1; assay: Biofilm inhibition (at least 80%), E. faecium; format: cell-based; details: E. faecium #2-1; n = 3; TSB + 1% glucose; 48 hours; crystal violet
[12] = tested on: Klebsiella pneumonia KPLN649; assay: Biofilm inhibition (at least 80%), K. pneumonia; format: cell-based; details: K. pneumoniae KPLN649; n = 3; BM2 minimal media; 48 hours; crystal violet
[13] = tested on: Enterobacter cloacae 218R1; assay: Biofilm inhibition (at least 80%), E. cloacae; format: cell-based; details: E. cloacae 218R1; n = 3; BM2 minimal media; 18-24 hours; crystal violet

| Structure (SMILES) | Activity against PAO1 biofilms compared to AB103-D [2] | minimum inhibitory concentration of peptide that inhibited at least 90% of biofilm growth (MBIC90) (MRSA USA300 biofilms) | MIC (P. aeruginosa PAO1 [3]) | MIC (MRSA USA 300) | MIC [4] | Average cyst size compared to DJK-5 [5] | minimum inhibitory concentration of peptide that inhibited at least 90% of biofilm growth (MBIC90) [6] | Clinical score [5] | Peptide/Antibiotic Concentration where at least 80% of biofilm growth was inhibited (MRSA USA300) | Peptide/Antibiotic Concentration where at least 80% of biofilm growth was inhibited [9] | Peptide/Antibiotic Concentration where at least 80% of biofilm growth was inhibited (P. aeruginosa PAO1 [10]) | Peptide/Antibiotic Concentration where at least 80% of biofilm growth was inhibited (E. coli O157:H7) | also measured |
| --- | --- | --- | --- | --- | --- | --- | --- | --- | --- | --- | --- | --- | --- |
| CC[C@@H](C)[C@@H](NC(=O)[C@H](NC(=O)[C@@H](CCCNC(=N)N)NC(=O)[C@H](NC(=O)[C@@H](CCCNC(=N)N)NC(=O)[C@H](NC(=O)[C@H](NC(=O)[C@@H](CCCNC(=N)N)NC(=O)[C@@H](Cc1c[nH]c2ccccc12)NC(=O)[C@@H](CCC(N)=O)NC(=O)[C@H](N)C(C)C)C(C)C)[C@H](C)CC)C(C)C)C(C)C)C(=O)N[C@H](CCCNC(=N)N)C(N)=O [AB108-D, vqwrvirvrvir-NH2] (H-[dV][dQ][dW][dR][dV][dI][dR][dV][dR][dV][dI][dR]-NH2) | – | – | – | – | – | – | – | – | – | – | – | – | Biofilm inhibitory activity compared to DJK5 ([1]; MRSA, three concentrations (FIG. 1)): only slightly lower than the DJK5 sample |
| CC[C@@H](C)[C@@H](NC(=O)[C@@H](C)NC(=O)[C@@H](CCCNC(=N)N)NC(=O)[C@@H](Cc1c[nH]c2ccccc12)NC(=O)[C@@H](CCC(N)=O)NC(=O)[C@H](NC(=O)[C@@H](CCCNC(=N)N)NC(=O)[C@H](NC(=O)[C@@H](Cc1c[nH]c2ccccc12)NC(=O)[C@@H](CCCNC(=N)N)NC(=O)[C@H](NC(=O)[C@H](N)CCCNC(=N)N)C(C)C)[C@H](C)CC)C(C)C)C(N)=O [AB110-D, rvrwirvqwrai] (H-[dR][dV][dR][dW][dI][dR][dV][dQ][dW][dR][dA][dI]-NH2) | activity superior to that of AB103-D | 1 µM | 2 µg/mL (≈ 1.22 µM) | 0.8 µg/mL (≈ 0.488 µM) | 0.8 µg/mL (≈ 0.488 µM) | smaller than those induced by DJK-5 | 4 µM | – | – | – | – | – | – |
| CC[C@@H](C)[C@@H](NC(=O)[C@@H](C)NC(=O)[C@@H](CCCNC(=N)N)NC(=O)[C@@H](CC(C)C)NC(=O)[C@@H](CCC(N)=O)NC(=O)[C@H](NC(=O)[C@@H](CCCNC(=N)N)NC(=O)[C@H](NC(=O)[C@H](NC(=O)[C@@H](CCCNC(=N)N)NC(=O)[C@H](NC(=O)[C@H](N)CCCNC(=N)N)C(C)C)C(C)C)[C@H](C)CC)C(C)C)C(N)=O [AB115-D, rvrvirvqlrai] (H-[dR][dV][dR][dV][dI][dR][dV][dQ][dL][dR][dA][dI]-NH2) | – | 1 µM | 2 µg/mL (≈ 1.35 µM) | 0.8 µg/mL (≈ 0.541 µM) | 0.8 µg/mL (≈ 0.541 µM) | smaller than those induced by DJK-5 | 8 µM | < 2 | – | – | – | – | MIC [7]: 0.8 µg/mL (≈ 0.541 µM); MIC (Klebsiella pneumoniae): 0.8 µg/mL (≈ 0.541 µM); MIC (Streptococcus salivarius): 0.8 µg/mL (≈ 0.541 µM) |
| CC[C@@H](C)[C@@H](NC(=O)[C@@H](C)NC(=O)[C@@H](CCCNC(=N)N)NC(=O)[C@@H](Cc1c[nH]c2ccccc12)NC(=O)[C@@H](CCC(N)=O)NC(=O)[C@H](NC(=O)[C@@H](CCCNC(=N)N)NC(=O)[C@H](NC(=O)[C@H](NC(=O)[C@@H](CCCNC(=N)N)NC(=O)[C@H](NC(=O)[C@H](N)CCCCN)C(C)C)C(C)C)[C@H](C)CC)C(C)C)C(N)=O [AB117-D, kvrvirvqwrai] (H-[dK][dV][dR][dV][dI][dR][dV][dQ][dW][dR][dA][dI]-NH2) | activity superior to that of AB103-D | 0.5 µM | – | – | – | – | 8 µM | < 2 | – | – | – | – | Peptide aggregation [8]: slightly; Better activity vs. MRSA cf. AB103-D ([1]; MRSA biofilms): ~2 fold |
| O=C(O)c1cn(C2CC2)c2cc(N3CCNCC3)c(F)cc2c1=O [CIP] | – | – | – | – | – | – | – | – | 8 µg/mL | 32 µg/mL | 0.125 µg/mL | 0.0625 µg/mL | – |
| CN[C@H](CC(C)C)C(=O)N[C@H]1C(=O)N[C@@H](CC(N)=O)C(=O)N[C@H]2C(=O)N[C@H]3C(=O)N[C@H](C(=O)N[C@H](C(=O)O)c4cc(O)cc(O)c4-c4cc3ccc4O)[C@H](O)c3ccc(c(Cl)c3)Oc3cc2cc(c3O[C@@H]2O[C@H](CO)[C@@H](O)[C@H](O)[C@H]2O[C@H]2C[C@](C)(N)[C@H](O)[C@H](C)O2)Oc2ccc(cc2Cl)[C@H]1O [VAN] | – | – | – | – | – | – | – | – | 0.25 µg/mL | 8 µg/mL | >256 µg/mL | 16 µg/mL | Peptide/Antibiotic Concentration where at least 80% of biofilm growth was inhibited [11]: >256 µg/mL; Peptide/Antibiotic Concentration where at least 80% of biofilm growth was inhibited [12]: 128 µg/mL; Peptide/Antibiotic Concentration where at least 80% of biofilm growth was inhibited [13]: 64 µg/mL |
